Assay results reported in patent publication US20110275703A1, “SUBSTITUTED SPIROKETAL DERIVATIVES AND USE THEREOF AS THERAPEUTIC DRUG FOR DIABETES” (CHUGAI SEIYAKU KABUSHIKI KAISHA, priority 2007, published 2011).
Read-outs that look alike come from different tables or passages of the source.

Columns and labels:
human SGLT2 = biological target: T1, human SGLT2 (Homo sapiens, UniProt P31639); assay: Inhibitory activity against methyl-α-D-glucopyranoside uptake, CHO cells stably expressing human SGLT2; format: cell-based; details: for hSGLT2 selectivity: matches hSGLT1 IC50 / hSGLT2 IC50 (formula not stated)
T1 construct: expressed in transfected cells; host or cells: CHO-K1
T1 sequence (P31639 1-672): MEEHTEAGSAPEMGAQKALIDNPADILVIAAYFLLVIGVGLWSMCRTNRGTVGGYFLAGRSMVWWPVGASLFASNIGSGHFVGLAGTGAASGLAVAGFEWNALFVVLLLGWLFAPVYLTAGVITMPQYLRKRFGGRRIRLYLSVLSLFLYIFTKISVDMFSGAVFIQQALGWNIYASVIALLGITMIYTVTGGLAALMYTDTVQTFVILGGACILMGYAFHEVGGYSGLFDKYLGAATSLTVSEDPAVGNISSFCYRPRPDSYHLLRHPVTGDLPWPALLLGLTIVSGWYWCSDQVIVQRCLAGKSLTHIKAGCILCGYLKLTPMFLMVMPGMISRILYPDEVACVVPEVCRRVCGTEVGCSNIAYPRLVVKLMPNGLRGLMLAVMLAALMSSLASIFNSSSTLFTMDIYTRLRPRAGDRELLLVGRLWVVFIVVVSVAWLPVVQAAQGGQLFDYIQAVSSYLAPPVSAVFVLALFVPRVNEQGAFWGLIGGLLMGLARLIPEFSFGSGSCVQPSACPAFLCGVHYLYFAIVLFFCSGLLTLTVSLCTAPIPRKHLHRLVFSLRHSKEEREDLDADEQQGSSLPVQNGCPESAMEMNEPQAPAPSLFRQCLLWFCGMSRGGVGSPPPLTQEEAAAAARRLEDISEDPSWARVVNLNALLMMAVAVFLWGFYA
Outline: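 CHO-K1 cells stably expressing human SGLT2 were pre-incubated in sodium-free choline buffer (pH 7.4), then exposed 45 min at 37°C to test compound in sodium buffer containing 1 mM [14C]methyl-α-D-glucopyranoside. Sodium-free buffer gave baseline uptake. After washing, cells were lysed with NaOH/SDS.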

db/db mice = assay: Study for glucose lowering effect in db/db mouse; format: in vivo; details: oral, 0.3 mg/kg, relative to control group; for inhibition in vivo at 0.3 mg/kg: Mus musculus, 6 hours, Table 3-2, read-out: Percent reduction of blood glucose (%) 6 hours after administration; for Percent reduction of blood glucose (%) 24 hours after administration: Table 3-2
Outline: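 Male db/db mice, 9–11 weeks old, were grouped (n=5) by body weight/blood glucose and dosed orally by gavage with compound in 0.5% CMC at 0.3 mg/10 mL or 3 mg/10 mL (10 mL/kg); controls got vehicle. Tail blood glucose was measured by hexokinase method before and serially after dosing, expressed as % reduction versus control.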

[1] = Table 2-2, read-out: hhSGLT2 IC50 value
[2] = inhibition of SGLT2, Table 2-1, read-out: IC50 value

Row | IC50 (human SGLT2; [1]) | hSGLT2 selectivity (human SGLT2) | IC50 (human SGLT2; [2]) | SMILES | inhibition in vivo at 0.3 mg/kg (db/db mice) | Percent reduction of blood glucose (%) 24 hours after administration (db/db mice)
1 | 1.6 nM | 83 | – | CCc1ccc(Cc2cc3c(cc2C)CO[C@]32O[C@H](CO)[C@@H](O)[C@H](O)[C@H]2O)cc1 [Comparative Compound 1, 1,1-anhydro-1-C-[5-(4-ethylphenyl)methyl-2-(hydroxymethyl)-4-methylphenyl]-β-glucopyranose, reference compound] | – | –
2 | 1.3 nM | 155 | 1.3 nM | CCc1ccc(Cc2cc3c(cc2Cl)CO[C@]32O[C@H](CO)[C@@H](O)[C@H](O)[C@H]2O)cc1 [Example 1, (1S,3′R,4′S,5′S,6′R)-5-chloro-6-[(4-ethylphenyl)methyl]-3′,4′,5′,6′-tetrahydro-6′-(hydroxymethyl)-spiro[isobenzofuran-1(3H),2′-[2H]pyran]-3′,4′,5′-triol] | 42% | 32%
3 | 1.5 nM | 283 | 1.5 nM | CCOc1ccc(Cc2cc3c(cc2Cl)CO[C@]32O[C@H](CO)[C@@H](O)[C@H](O)[C@H]2O)cc1 [Example 5, (1S,3′R,4′S,5′S,6′R)-5-chloro-6-[(4-ethoxyphenyl)methyl]-3′,4′,5′,6′-tetrahydro-6′-(hydroxymethyl)-spiro[isobenzofuran-1(3H),2′-[2H]pyran]-3′,4′,5′-triol] | 52% | 25%
4 | 1.7 nM | 224 | 1.7 nM | OC[C@H]1O[C@]2(OCc3cc(Cl)c(Cc4ccc5ccccc5c4)cc32)[C@H](O)[C@@H](O)[C@@H]1O [Example 7, (1S,3′R,4′S,5′S,6′R)-5-chloro-3′,4′,5′,6′-tetrahydro-6′-(hydroxymethyl)-6-(2-naphthylmethyl)-spiro[isobenzofuran-1(3H),2′-[2H]pyran]-3′,4′,5′-triol] | 54% | 42%
5 | 1.1 nM | 323 | 1.1 nM | OC[C@H]1O[C@]2(OCc3cc(Cl)c(Cc4ccc(CCF)cc4)cc32)[C@H](O)[C@@H](O)[C@@H]1O [Example 8, (1S,3′R,4′S,5′S,6′R)-5-chloro-6-[(4-(2-fluoroethyl)phenyl)methyl]-3′,4′,5′,6′-tetrahydro-6′-(hydroxymethyl)-spiro[isobenzofuran-1(3H),2′-[2H]pyran]-3′,4′,5′-triol] | 48% | 27%
6 | 2.3 nM | 590 | 2.3 nM | CCCc1ccc(Cc2cc3c(cc2Cl)CO[C@]32O[C@H](CO)[C@@H](O)[C@H](O)[C@H]2O)cc1 [Example 9, (1S,3′R,4′S,5′S,6′R)-5-chloro-3′,4′,5′,6′-tetrahydro-6′-(hydroxymethyl)-6-[(4-propylphenyl)methyl]-spiro[isobenzofuran-1(3H),2′-[2H]pyran]-3′,4′,5′-triol] | 48% | 28%
7 | 1.7 nM | 596 | 1.7 nM | CC(C)c1ccc(Cc2cc3c(cc2Cl)CO[C@]32O[C@H](CO)[C@@H](O)[C@H](O)[C@H]2O)cc1 [Example 15, (1S,3′R,4′S,5′S,6′R)-5-chloro-3′,4′,5′,6′-tetrahydro-6′-(hydroxymethyl)-6-[(4-isopropylphenyl)methyl]-spiro[isobenzofuran-1(3H),2′-[2H]pyran]-3′,4′,5′-triol] | 50% | 27%
8 | 2 nM | 341 | 2.1 nM | Cc1cc2c(cc1Cc1ccc(C(C)C)cc1)[C@]1(OC2)O[C@H](CO)[C@@H](O)[C@H](O)[C@H]1O [Example 21, (1S,3′R,4′S,5′S,6′R)-3′,4′,5′,6′-tetrahydro-6′-(hydroxymethyl)-6-[(4-isopropylphenyl)methyl]-5-methyl-spiro[isobenzofuran-1(3H),2′-[2H]pyran]-3′,4′,5′-triol] | 51% | 33%
